Test results reported in patent US12453733B2, “Composition for prevention or treatment of intractable epilepsy comprising mTOR inhibitor” (SoVarGen Co., Ltd., priority 2015, dated 2025).
“Also recorded” adds a separate entry of the source.

Legend:
Format in all cases: cell-based, human
[1] = tested on: TSC1 mutant-expressing HEK293T cells; test: Western blot of S6K phosphorylation in TSC1 mutant-expressing HEK293T cells after drug treatment; conditions: Example 11; FIGS. 24a and 24b
Description: (§1) Briefly, HEK293T cells (Thermo Scientific) were cultured in DMEM (Dulbecco's Modified Eagle's Medium) supplemented with 10% FBS at 37° C. and 5% CO2. The cells were transfected with empty flag-tagged vector, HA-tagged TSC1 wild-type, HA-tagged TSC2 wild-type, HA-tagged AKT3 wild-type, HA-tagged TSC1 mutant, HA-tagged TSC2 mutant and HA-tagged AKT3 mutant, respectively, using jetPRIME transfection reagent (Polyplus, France).
(§2) The cells were serum-starved with 0.1% FBS in DMEM for 24 hours after transfection and then incubated at 37° C. and 5% CO2 in PBS containing 1 mM MgCl2 and CaCl2 for 1 hour. The cells were lysed with PBS containing 1% Triton X-100 and Halt protease and phosphatase inhibitor cocktail (78440, Thermo Scientific, USA). Proteins were resolved by SDS-PAGE and transferred to PVDF membranes (Millipore, USA). The membranes were blocked with 3% BSA in TBS containing 0.1% Tween 20 (TBST). They were washed 4 times with TBST. The membranes were incubated overnight with primary antibodies including a 1/1000 dilution of anti-phospho-S6 ribosomal protein (5364, Cell Signaling Technology, USA), anti-56 ribosomal protein (2217, Cell Signaling Technology, USA), and anti-flag M2 (8164, Cell Signaling Technology, USA) in TBST at 4° C., respectively. After incubation, the membranes were washed 4 times with TBST. […]

[2] = tested on: mutant mTOR-expressing HEK293T cells; test: Western blot of S6/S6K phosphorylation in mutant mTOR-expressing HEK293T cells after drug treatment; conditions: for phosphorylation of S6K in all the mutant mTOR-expressing cells: Y1450D, C1483R, R1709H, Y1977K, S2215F, L2427P, L2427Q
Description: HEK293T cells (Thermo Scientific) was cultured in DMEM (Dulbecco's Modified Eagle's Medium) containing 10% FBS at 37° C. and 5% CO2. The cells were transfected with empty flag-tagged vector, flag-tagged mTOR wild type, and flag-tagged mTOR mutants using jetPRIME transfection reagent (Polyplus, France). The cells were serum-starved with DMEM containing 0.1% FBS for 24 hours after transfection and then incubated at 37° C. and 5% CO2 in PBS containing 1 mM MgCl2 and CaCl2 for 1 hour. The cells were lysed with PBS containing 1% Triton X-100 and Halt protease and phosphatase inhibitor cocktail (78440, Thermo Scientific, USA).
Proteins were resolved by SDS-PAGE and transferred to PVDF membranes (Millipore, USA). The membranes were blocked with 3% BSA in TBS containing 0.1% Tween 20 (TBST). They were washed 4 times with TBST. The membranes were each incubated overnight at 4° C. with primary antibodies including a 1/1000 dilution of anti-phospho-S6 ribosomal protein (5364, Cell Signaling Technology, USA), anti-56 ribosomal protein (2217, Cell Signaling Technology, USA), and anti-flag M2 (8164, Cell Signaling Technology, USA) in TBST. After incubation, the membranes were washed 4 times with TBST. They were incubated with a 1/5000 dilution of HRP-linked anti-rabbit or anti-mouse secondary antibodies (7074, Cell Signaling Technology, USA) for 2 hours at room temperature. After washing with TBST, immunodetection was performed using ECL reaction reagents.
Transfection of mTOR mutants into HEK293T cells was carried out in the same manner as in Example 3-2. Then, the cells were serum-starved with DMEM containing 0.1% FBS for 24 hours and incubated at 37° C. and 5% CO2 in PBS containing 1 mM MgCl2 and CaCl2 for 1 hour, followed by treatment with rapamycin, everolimus, or compounds of Chemical Formulas 1 to 4 (Torinl, INK128, AZD8055, GSK2126458); Torin was purchased from TOCRIS, INK128, AZD8055, and GSK2126458 were provided from Selleckchem, and everolimus was purchased from LC laboratory. Subsequently, Western blotting was performed in the same manner as in Example 9.
Cells expressing various mTOR mutations were treated in the same manner as in Example 3-2 with rapamycin, everolimus, or the compounds of Chemical Formulas 1 to 4 and monitored for S6K phosphorylation. The mTOR mutations were R624H, Y1450D, C1483R, R1709H, Y1977K, S2215F, L2427P, and L2427Q. […]
Cells expressing various mTOR mutations were treated in the same manner as in Example 9-1 with rapamycin, everolimus, or the compounds of Chemical Formulas 1 to 4, and monitored for S6K phosphorylation. […]

[3] = tested on: TSC2 mutant-expressing HEK293T cells; test: Western blot of S6K phosphorylation in TSC2 mutant-expressing HEK293T cells after drug treatment; conditions: Example 11; FIGS. 25a and 25b
Description: as §1, §2

CO[C@H]1C[C@@H]2CC[C@@H](C)[C@@](O)(O2)C(=O)C(=O)N2CCCC[C@H]2C(=O)O[C@H]([C@H](C)C[C@@H]2CC[C@@H](OCCO)[C@H](OC)C2)CC(=O)[C@H](C)/C=C(\C)[C@@H](O)[C@@H](OC)C(=O)[C@H](C)C[C@H](C)/C=C/C=C/C=C/1C [everolimus]
S6K phosphorylation in TSC1 mutant-expressing cells [1]: inhibit
phosphorylation of S6K in mutant mTOR-expressing cells ([2]; Example 3-4, HEK293T, Western blot, FIGS. 9a to 9c): inhibited; also recorded: reduce
phosphorylation of S6K in all the mutant mTOR-expressing cells ([2]; Example 3-5, mutations R624H, FIGS. 13 and 14): inhibited
phosphorylation of S6 in mutant mTOR-expressing cells ([2]; Example 10-1, FIG. 22, mTOR L2427P-expressing cells): inhibited
phosphorylation of S6K in all the mutant mTOR-expressing cells ([2]; Example 10-2, variants R624H, FIGS. 23a and 23b): inhibited
S6K phosphorylation in TSC2 mutant-expressing cells [3]: inhibit
